From patent US6458812B1, “Muscarinic antagonists” (Schering Corporation, priority 2000, dated 2002)
Counter-ions that a name gives are not always drawn.

What was measured:
[1] = Microsomal stability, rat; assay type: in vitro ADME; settings: rat liver microsomes, 37° C.
Procedure: (§1) A solution of a compound of formula I at a final substrate concentration of […] and human, cynomolgus monkey or rat liver microsomes at final P450 concentrations of 0.18, 0.175 and 0.25 nmol/ml, respectively, is incubated in 0.1 M potassium phosphate buffer at pH 7.4 in 96-well micro-titre plates at 37° C. for 3 min in a shaking water bath. A cofactor solution containing MgCl2, Glucose-6-phosphate, NADPH, and Glucose-6-phosphate dehydrogenase is added to each sample (half the total incubation volume/sample) and the total incubation mixture is incubated for 0 and 30 min. (An n=3 samples is incubated for each compound). After each time point, an equal volume of CH3CN is added. The samples are mixed by vortexing and the plates are centrifuged at 3000 rpm for 20 min. The supernatant is analyzed by Liquid Chromatography Mass Spectrometry (LCMS) for parent drug and/or metabolites using an appropriate analytical method.

[2] = Microsomal stability, monkey; assay type: in vitro ADME, cynomolgus monkey; settings: monkey liver microsomes, 37° C.
Procedure: as §1

[3] = Microsomal stability, human; assay type: in vitro ADME; settings: human liver microsomes, 37° C.
Procedure: as §1

Row | melting point [°C] | % remaining after 30 min. [1] [%] | % remaining after 30 min. [2] [%] | % remaining after 30 min. [3] [%] | Structure (SMILES)
1 | 234 to 235 | – | – | – | C[C@H](NC(=O)c1ccc(CC2CCN(C3CCCCC3)CC2)cc1)c1ccc(F)cc1 (as salt: HCl) [Example 2]
2 | – | 79 | 80 | 80 | C[C@H](NC(=O)c1ccc(CC2CCN(C3CCCCC3)CC2)cc1)c1ccc(F)cc1 [Example 2]
